Results on 16 compounds are retold here after patent US9751869B2, “LXR modulators” (BRISTOL-MYERS SQUIBB COMPANY, priority 2013, dated 2017).

For the assay, the target named is T1, LXRβ (Homo sapiens, UniProt P55055).
T1 construct: Co-transfection expression plasmids, comprising full-length LXRα (pCMX-h LXRα or LXRβ (pCMX-hLXRβ)); expressed in transfected cells; host or cells: CV-1 African green monkey kidney cells, transient transfection with pCMX-hLXRβ
T1 sequence (P55055 1-460): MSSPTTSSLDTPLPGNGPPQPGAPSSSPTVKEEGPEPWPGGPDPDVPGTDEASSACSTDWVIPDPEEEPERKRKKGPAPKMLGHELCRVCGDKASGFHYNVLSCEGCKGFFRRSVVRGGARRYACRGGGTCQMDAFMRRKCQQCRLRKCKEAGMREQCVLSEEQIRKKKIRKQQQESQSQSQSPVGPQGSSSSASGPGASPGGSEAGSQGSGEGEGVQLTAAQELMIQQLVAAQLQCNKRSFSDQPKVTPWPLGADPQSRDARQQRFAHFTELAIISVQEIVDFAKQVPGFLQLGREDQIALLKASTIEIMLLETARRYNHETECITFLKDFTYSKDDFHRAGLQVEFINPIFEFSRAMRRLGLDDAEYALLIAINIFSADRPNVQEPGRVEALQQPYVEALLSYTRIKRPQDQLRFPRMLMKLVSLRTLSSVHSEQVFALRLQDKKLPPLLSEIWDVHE
T1 sequence (P19793 1-462 partner): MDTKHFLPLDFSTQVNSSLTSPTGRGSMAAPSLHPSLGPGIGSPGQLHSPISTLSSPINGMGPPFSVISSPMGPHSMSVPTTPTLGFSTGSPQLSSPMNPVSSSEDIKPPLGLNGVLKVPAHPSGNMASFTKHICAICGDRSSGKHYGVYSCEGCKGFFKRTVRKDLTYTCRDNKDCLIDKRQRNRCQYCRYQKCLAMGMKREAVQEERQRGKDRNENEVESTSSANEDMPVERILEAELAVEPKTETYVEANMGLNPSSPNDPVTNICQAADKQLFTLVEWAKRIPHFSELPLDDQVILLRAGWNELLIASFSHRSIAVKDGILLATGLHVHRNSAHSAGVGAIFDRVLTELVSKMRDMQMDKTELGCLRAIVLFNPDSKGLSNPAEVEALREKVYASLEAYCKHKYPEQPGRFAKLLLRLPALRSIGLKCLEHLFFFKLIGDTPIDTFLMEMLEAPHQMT
Put plainly: LXR/LXRE co-transfection assay (luciferase reporter) in CV-1 cells, LXRβ. Format: cell-based. As to conditions: for EC50: CV-1 cells transfected with pCMX-hLXRβ and LXREx1-Tk-Luciferase, 20 hours incubation, read-out: LXRbeta agonism EC50; for Emax: CV-1 cells, relative to maximum response of high control N-(3-((4-fluorophenyl)-(naphthalene-2-sulfonyl)amino)propyl)-2,2-dimethylpropionamide, read-out: LXRbeta % EFFICACY
A digest of the protocol: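 CV-1 cells transiently co-transfected with full-length human LXRβ, LXRE-Tk-luciferase reporter and β-galactosidase control, then exposed to compound (≤0.5% DMSO) for 20 h at 37 °C before luminescence read. EC50 from 10-point, half-log dose curves; efficacy relative to the sulfonamide high control, means of 2–3 experiments.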

As to `Cc1nc(-c2cc(-c3cc(F)c(CO)c(S(C)(=O)=O)c3)ccc2-n2ccc(C(F)(F)F)n2)c(-c2ccc(OC(F)F)nc2)o1` [Example 395, (3′-(5-(6-(difluoromethoxy)pyridin-3-yl)-2-methyloxazol-4-yl)-3-fluoro-5-(methylsulfonyl)-4′-(3-(trifluoromethyl)-1H-pyrazol-1-yl)biphenyl-4-yl)methanol], the EC50 was determined as 11 nM and the Emax amounted to 83%.
For `Cc1nc(-c2cc(-c3cc(F)c(CO)c(S(C)(=O)=O)c3)ccc2-n2ccc(C(F)(F)F)n2)c(-c2ccc(Cl)c(OC(F)F)c2)o1` [Example 396, (3′-(5-(4-chloro-3-(difluoromethoxy)phenyl)-2-methyloxazol-4-yl)-3-fluoro-5-(methylsulfonyl)-4′-(3-(trifluoromethyl)-1H-pyrazol-1-yl)biphenyl-4-yl)methanol], in that order: 90 nM and 67%.
For `Cc1nc(-c2cc(-c3cccc(S(C)(=O)=O)c3)ccc2-n2ccc(C(F)(F)F)n2)c(-c2ccc(OC(F)F)c(Cl)c2)o1` [Example 397, 5-(3-chloro-4-(difluoromethoxy)phenyl)-2-methyl-4-(3′-(methylsulfonyl)-4-(3-(trifluoromethyl)-1H-pyrazol-1-yl)biphenyl-3-yl)oxazole], the EC50 is 194 nM and the Emax was found to be 68%.
For `CC(C)c1nc(-c2cc(-c3cc(F)c(CO)c(S(C)(=O)=O)c3)ccc2-n2ccc(C(F)(F)F)n2)c(-c2ccc(OC(F)(F)F)cc2)o1` [Example 398, (3-fluoro-3′-(2-isopropyl-5-(4-(trifluoromethoxy)phenyl)oxazol-4-yl)-5-(methylsulfonyl)-4′-(3-(trifluoromethyl)-1H-pyrazol-1-yl)biphenyl-4-yl)methanol] the same measures were 38 nM and 63%.
Turning to `CC(C)c1nc(-c2cc(-c3cccc(S(C)(=O)=O)c3)ccc2-n2ccc(C(F)(F)F)n2)c(-c2ccc(OC(F)(F)F)cc2)o1` [Example 399, 2-isopropyl-4-(3′-(methylsulfonyl)-4-(3-(trifluoromethyl)-1H-pyrazol-1-yl)biphenyl-3-yl)-5-(4-(trifluoromethoxy)phenyl)oxazole], the half-maximal effective concentration (EC50) came to 200 nM and the Emax worked out at 60%.
For `Cc1nc(-c2cc(-c3cc(F)c(CO)c(S(C)(=O)=O)c3)ccc2-n2ccc(C(F)(F)F)n2)c(-c2ccc(Cl)cc2)o1` [Example 400, (3′-(5-(4-chlorophenyl)-2-methyloxazol-4-yl)-3-fluoro-5-(methylsulfonyl)-4′-(3-(trifluoromethyl)-1H-pyrazol-1-yl)biphenyl-4-yl)methanol], in that order: 38 nM and 53%.
For `Cc1nc(-c2cc(-c3cccc(S(C)(=O)=O)c3)ccc2-n2ccc(C(F)(F)F)n2)c(-c2ccc(Cl)cc2)o1` [Example 401, 5-(4-chlorophenyl)-2-methyl-4-(3′-(methylsulfonyl)-4-(3-(trifluoromethyl)-1H-pyrazol-1-yl)biphenyl-3-yl)oxazole], in that order: 131 nM and 76%.
For `CS(=O)(=O)c1cc(-c2ccc(-n3ccc(C(F)(F)F)n3)c(-c3nc(C4CC4)oc3-c3ccc(OC(F)(F)F)cc3)c2)cc(F)c1CO` [Example 402, (3′-(2-cyclopropyl-5-(4-(trifluoromethoxy)phenyl)oxazol-4-yl)-3-fluoro-5-(methylsulfonyl)-4′-(3-(trifluoromethyl)-1H-pyrazol-1-yl)biphenyl-4-yl)methanol], the concentration giving a half-maximal response (EC50) came to 14 nM and the Emax amounted to 67%.
Regarding `CS(=O)(=O)c1cccc(-c2ccc(-n3ccc(C(F)(F)F)n3)c(-c3nc(C4CC4)oc3-c3ccc(OC(F)(F)F)cc3)c2)c1` [Example 403, 2-cyclopropyl-4-(3′-(methylsulfonyl)-4-(3-(trifluoromethyl)-1H-pyrazol-1-yl)biphenyl-3-yl)-5-(4-(trifluoromethoxy)phenyl)oxazole], the 50% effective concentration (EC50) is 82 nM and the Emax stood at 62%.
For `Cc1nc(-c2cc(-c3cccc(C(C)(C)C(N)=O)c3)ccc2-n2nc(C(F)(F)F)cc2Cl)c(-c2ccc(OC(F)(F)F)cc2)o1` [Example 404, 2-(4′-(5-chloro-3-(trifluoromethyl)-1H-pyrazol-1-yl)-3′-(2-methyl-5-(4-(trifluoromethoxy)phenyl)oxazol-4-yl)biphenyl-3-yl)-2-methylpropanamide] the same measures were 185 nM and 67%.
For `Cc1nc(-c2cc(-c3cc(F)c(CO)c(S(C)(=O)=O)c3)ccc2-n2nc(C(F)(F)F)cc2Cl)c(-c2ccc(OC(F)(F)F)cc2)o1` [Example 405, (4′-(5-chloro-3-(trifluoromethyl)-1H-pyrazol-1-yl)-3-fluoro-3′-(2-methyl-5-(4-(trifluoromethoxy)phenyl)oxazol-4-yl)-5-(methylsulfonyl)biphenyl-4-yl)methanol], in that order: 100 nM and 63%.
Regarding `Cc1nc(-c2cc(-c3cccc(S(C)(=O)=O)c3)ccc2-n2nc(C(F)(F)F)cc2Cl)c(-c2ccc(OC(F)(F)F)cc2)o1` [Example 406, 4-(4-(5-chloro-3-(trifluoromethyl)-1H-pyrazol-1-yl)-3′-(methylsulfonyl)biphenyl-3-yl)-2-methyl-5-(4-(trifluoromethoxy)phenyl)oxazole], the concentration giving a half-maximal response (EC50) was 143 nM and the Emax was 63%.
Turning to `COc1ncc(-c2oc(C)nc2-c2cc(-c3cccc(S(C)(=O)=O)c3)ccc2-n2ccc(C(F)(F)F)n2)cc1F` [Example 407, 5-(5-fluoro-6-methoxypyridin-3-yl)-2-methyl-4-(3′-(methylsulfonyl)-4-(3-(trifluoromethyl)-1H-pyrazol-1-yl)biphenyl-3-yl)oxazole], the 50% effective concentration (EC50) stood at 67 nM and the Emax is 91%.
For `COc1ncc(-c2oc(C)nc2-c2cc(-c3cc(F)c(CO)c(S(C)(=O)=O)c3)ccc2-n2ccc(C(F)(F)F)n2)cc1F` [Example 408, (3-fluoro-3′-(5-(5-fluoro-6-methoxypyridin-3-yl)-2-methyloxazol-4-yl)-5-(methylsulfonyl)-4′-(3-(trifluoromethyl)-1H-pyrazol-1-yl)biphenyl-4-yl)methanol], in that order: 18 nM and 73%.
For `Cc1nc(-c2cc(-c3cccc(S(C)(=O)=O)c3)ccc2-n2ccc(C(F)(F)F)n2)c(-c2cc(F)c(OC(F)F)c(F)c2)o1` [Example 409, 5-(4-(difluoromethoxy)-3,5-difluorophenyl)-2-methyl-4-(3′-(methylsulfonyl)-4-(3-(trifluoromethyl)-1H-pyrazol-1-yl)biphenyl-3-yl)oxazole], in that order: 45 nM and 69%.
For `Cc1nc(-c2cc(-c3cc(F)c(CO)c(S(C)(=O)=O)c3)ccc2-n2ccc(C(F)(F)F)n2)c(-c2cc(F)c(OC(F)F)c(F)c2)o1` [Example 410, (3′-(5-(4-(difluoromethoxy)-3,5-difluorophenyl)-2-methyloxazol-4-yl)-3-fluoro-5-(methylsulfonyl)-4′-(3-(trifluoromethyl)-1H-pyrazol-1-yl)biphenyl-4-yl)methanol], in that order: 20 nM and 82%.
